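GI50 marks 50% less growth. TGI: total growth inhibition.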
What was measured:
Test in all cases: NCI-60 cell line screen, 384-well format
786-0 renal = system: 786-0 renal
A498 renal = system: A498 renal
A549 NSCLC = system: A549 NSCLC
ACHN renal = system: ACHN renal
BT-549 breast = system: BT-549 breast
CAKI-1 renal = system: CAKI-1 renal
CCRF-CEM leukemia = system: CCRF-CEM leukemia
COLO 205 colon = system: COLO 205 colon
DU-145 prostate = system: DU-145 prostate
EKVX NSCLC = system: EKVX NSCLC
HCC-2998 colon = system: HCC-2998 colon
HCT-15 colon = system: HCT-15 colon
HL-60(TB) leukemia = system: HL-60(TB) leukemia
HOP-62 NSCLC = system: HOP-62 NSCLC
HOP-92 NSCLC = system: HOP-92 NSCLC
HS 578T breast = system: HS 578T breast
HT29 colon = system: HT29 colon
IGROV1 ovarian = system: IGROV1 ovarian
K-562 leukemia = system: K-562 leukemia
KM12 colon = system: KM12 colon
LOX IMVI melanoma = system: LOX IMVI melanoma
M14 melanoma = system: M14 melanoma
MALME-3M melanoma = system: MALME-3M melanoma
MCF7 breast = system: MCF7 breast
MDA-MB-231 breast = system: MDA-MB-231 breast
MDA-MB-435 melanoma = system: MDA-MB-435 melanoma
MDA-MB-468 breast = system: MDA-MB-468 breast
MOLT-4 leukemia = system: MOLT-4 leukemia
NCI-H226 lung = system: NCI-H226 lung
NCI-H23 lung = system: NCI-H23 lung
NCI-H322M lung = system: NCI-H322M lung
NCI-H460 NSCLC = system: NCI-H460 NSCLC
NCI-H522 lung = system: NCI-H522 lung
NCI/ADR-RES ovarian = system: NCI/ADR-RES ovarian
OVCAR-3 ovarian = system: OVCAR-3 ovarian
OVCAR-4 ovarian = system: OVCAR-4 ovarian
OVCAR-5 ovarian = system: OVCAR-5 ovarian
OVCAR-8 ovarian = system: OVCAR-8 ovarian
PC-3 prostate = system: PC-3 prostate
RPMI-8226 leukemia = system: RPMI-8226 leukemia
RXF 393 renal = system: RXF 393 renal
SF-268 CNS = system: SF-268 CNS
SF-295 CNS = system: SF-295 CNS
SF-539 CNS = system: SF-539 CNS
SK-MEL-28 melanoma = system: SK-MEL-28 melanoma
SK-MEL-5 melanoma = system: SK-MEL-5 melanoma
SK-OV-3 ovarian = system: SK-OV-3 ovarian
SN12C renal = system: SN12C renal
SNB-19 CNS = system: SNB-19 CNS
SNB-75 CNS = system: SNB-75 CNS
SR leukemia = system: SR leukemia
SW-620 colon = system: SW-620 colon
T-47D breast = system: T-47D breast
TK-10 renal = system: TK-10 renal
UACC-257 melanoma = system: UACC-257 melanoma
UACC-62 melanoma = system: UACC-62 melanoma
UO-31 renal = system: UO-31 renal

SMILES: CCC(CC)n1cnc2c(-c3cnc(N)cn3)nc(N3CC4CCC(C3)O4)nc21
- GI50 ([…]-0 renal): 2.75 µM
- TGI (786-0 renal): > 100 µM
- GI50 (A498 renal): 0.173 µM
- TGI (A498 renal): 1.32 µM
- GI50 (A549 NSCLC): 0.418 µM
- TGI (A549 NSCLC): > 100 µM
- GI50 (ACHN renal): 0.523 µM
- TGI (ACHN renal): > 100 µM
- GI50 (BT-549 breast): 1.06 µM
- TGI (BT-549 breast): 5.22 µM
- GI50 (CAKI-1 renal): 0.775 µM
- TGI (CAKI-1 renal): 45.8 µM
- GI50 (CCRF-CEM leukemia): 0.358 µM
- TGI (CCRF-CEM leukemia): 14 µM
- GI50 (COLO 205 colon): 0.425 µM
- TGI (COLO 205 colon): > 100 µM
- GI50 (DU-145 prostate): 2.03 µM
- TGI (DU-145 prostate): > 100 µM
- GI50 (EKVX NSCLC): 0.977 µM
- TGI (EKVX NSCLC): 9.92 µM
- GI50 (HCC-2998 colon): 10.5 µM
- TGI (HCC-2998 colon): > 100 µM
- GI50 (HCT-15 colon): 0.566 µM
- TGI (HCT-15 colon): > 100 µM
- GI50 (HL-60(TB) leukemia): 44.5 µM
- TGI (HL-60(TB) leukemia): > 100 µM
- GI50 (HOP-62 NSCLC): 1.01 µM
- TGI (HOP-62 NSCLC): 39.1 µM
- GI50 (HOP-92 NSCLC): 0.298 µM
- TGI (HOP-92 NSCLC): 4.96 µM
- GI50 (HS 578T breast): 0.205 µM
- TGI (HS 578T breast): 0.927 µM
- GI50 (HT29 colon): 2.53 µM
- TGI (HT29 colon): > 100 µM
- GI50 (IGROV1 ovarian): 0.229 µM
- TGI (IGROV1 ovarian): 0.894 µM
- GI50 (K-562 leukemia): 1.68 µM
- TGI (K-562 leukemia): > 100 µM
- GI50 (KM12 colon): 0.508 µM
- TGI (KM12 colon): > 100 µM
- GI50 (LOX IMVI melanoma): 1.08 µM
- TGI (LOX IMVI melanoma): 8.87 µM
- GI50 (M14 melanoma): 0.493 µM
- TGI (M14 melanoma): > 100 µM
- GI50 (MALME-3M melanoma): 0.0694 µM
- TGI (MALME-3M melanoma): 0.531 µM
- GI50 (MCF7 breast): 0.184 µM
- TGI (MCF7 breast): 80.3 µM
- GI50 (MDA-MB-231 breast): 0.68 µM
- TGI (MDA-MB-231 breast): > 100 µM
- GI50 (MDA-MB-435 melanoma): 1.58 µM
- TGI (MDA-MB-435 melanoma): 39.9 µM
- GI50 (MDA-MB-468 breast): 0.375 µM
- TGI (MDA-MB-468 breast): 1.2 µM
- GI50 (MOLT-4 leukemia): 0.375 µM
- TGI (MOLT-4 leukemia): 10.5 µM
- GI50 (NCI-H226 lung): 0.54 µM
- TGI (NCI-H226 lung): 6.52 µM
- GI50 (NCI-H23 lung): 1.27 µM
- TGI (NCI-H23 lung): > 100 µM
- GI50 (NCI-H322M lung): 0.394 µM
- TGI (NCI-H322M lung): > 100 µM
- GI50 (NCI-H460 NSCLC): 0.187 µM
- TGI (NCI-H460 NSCLC): > 100 µM
- GI50 (NCI-H522 lung): 0.314 µM
- TGI (NCI-H522 lung): > 100 µM
- GI50 (NCI/ADR-RES ovarian): 2.77 µM
- TGI (NCI/ADR-RES ovarian): > 100 µM
- GI50 (OVCAR-3 ovarian): 0.901 µM
- TGI (OVCAR-3 ovarian): > 100 µM
- GI50 (OVCAR-4 ovarian): 0.635 µM
- TGI (OVCAR-4 ovarian): 3.79 µM
- GI50 (OVCAR-5 ovarian): 0.685 µM
- TGI (OVCAR-5 ovarian): > 100 µM
- GI50 (OVCAR-8 ovarian): 1.75 µM
- TGI (OVCAR-8 ovarian): > 100 µM
- GI50 (PC-3 prostate): 0.348 µM
- TGI (PC-3 prostate): > 100 µM
- GI50 (RPMI-8226 leukemia): 0.029 µM
- TGI (RPMI-8226 leukemia): 0.151 µM
- GI50 (RXF 393 renal): 1.29 µM
- TGI (RXF 393 renal): > 100 µM
- GI50 (SF-268 CNS): 2.57 µM
- TGI (SF-268 CNS): > 100 µM
- GI50 (SF-295 CNS): 0.267 µM
- TGI (SF-295 CNS): 2.28 µM
- GI50 (SF-539 CNS): 1.63 µM
- TGI (SF-539 CNS): > 100 µM
- GI50 (SK-MEL-28 melanoma): 0.309 µM
- TGI (SK-MEL-28 melanoma): 5.99 µM
- GI50 (SK-MEL-5 melanoma): 0.288 µM
- TGI (SK-MEL-5 melanoma): 1.61 µM
- GI50 (SK-OV-3 ovarian): 0.4 µM
- TGI (SK-OV-3 ovarian): 5.19 µM
- GI50 (SN12C renal): 0.433 µM
- TGI (SN12C renal): > 100 µM
- GI50 (SNB-19 CNS): 8.09 µM
- TGI (SNB-19 CNS): > 100 µM
- GI50 (SNB-75 CNS): 0.312 µM
- TGI (SNB-75 CNS): 7.84 µM
- GI50 (SR leukemia): 0.189 µM
- TGI (SR leukemia): 1.17 µM
- GI50 (SW-620 colon): 3.46 µM
- TGI (SW-620 colon): > 100 µM
- GI50 (T-47D breast): 0.0669 µM
- TGI (T-47D breast): 0.431 µM
- GI50 (TK-10 renal): 1.39 µM
- TGI (TK-10 renal): > 100 µM
- GI50 (UACC-257 melanoma): 2.37 µM
- TGI (UACC-257 melanoma): > 100 µM
- GI50 (UACC-62 melanoma): 0.416 µM
- TGI (UACC-62 melanoma): 4.61 µM
- GI50 (UO-31 renal): 3.03 µM
- TGI (UO-31 renal): > 100 µM

Source: PubChem BioAssay (NCI)
